In patent US10221139B2, “Inhibitors of histone demethylases” (Gilead Sciences, Inc., priority 2012, dated 2019):

Assays:
GASC1 (KDM4C) = target: T1, GASC1 (KDM4C) (Homo sapiens, UniProt Q9H3R0); experiment: Immunofluorescence assay in U2OS cells transfected with pCMVHA JMJD2C (H3K9me3 mark); assay type: cell-based; details: 20 hours
T1 construct: Full length; host or cells: U2OS
T1 sequence (Q9H3R0 1-1056): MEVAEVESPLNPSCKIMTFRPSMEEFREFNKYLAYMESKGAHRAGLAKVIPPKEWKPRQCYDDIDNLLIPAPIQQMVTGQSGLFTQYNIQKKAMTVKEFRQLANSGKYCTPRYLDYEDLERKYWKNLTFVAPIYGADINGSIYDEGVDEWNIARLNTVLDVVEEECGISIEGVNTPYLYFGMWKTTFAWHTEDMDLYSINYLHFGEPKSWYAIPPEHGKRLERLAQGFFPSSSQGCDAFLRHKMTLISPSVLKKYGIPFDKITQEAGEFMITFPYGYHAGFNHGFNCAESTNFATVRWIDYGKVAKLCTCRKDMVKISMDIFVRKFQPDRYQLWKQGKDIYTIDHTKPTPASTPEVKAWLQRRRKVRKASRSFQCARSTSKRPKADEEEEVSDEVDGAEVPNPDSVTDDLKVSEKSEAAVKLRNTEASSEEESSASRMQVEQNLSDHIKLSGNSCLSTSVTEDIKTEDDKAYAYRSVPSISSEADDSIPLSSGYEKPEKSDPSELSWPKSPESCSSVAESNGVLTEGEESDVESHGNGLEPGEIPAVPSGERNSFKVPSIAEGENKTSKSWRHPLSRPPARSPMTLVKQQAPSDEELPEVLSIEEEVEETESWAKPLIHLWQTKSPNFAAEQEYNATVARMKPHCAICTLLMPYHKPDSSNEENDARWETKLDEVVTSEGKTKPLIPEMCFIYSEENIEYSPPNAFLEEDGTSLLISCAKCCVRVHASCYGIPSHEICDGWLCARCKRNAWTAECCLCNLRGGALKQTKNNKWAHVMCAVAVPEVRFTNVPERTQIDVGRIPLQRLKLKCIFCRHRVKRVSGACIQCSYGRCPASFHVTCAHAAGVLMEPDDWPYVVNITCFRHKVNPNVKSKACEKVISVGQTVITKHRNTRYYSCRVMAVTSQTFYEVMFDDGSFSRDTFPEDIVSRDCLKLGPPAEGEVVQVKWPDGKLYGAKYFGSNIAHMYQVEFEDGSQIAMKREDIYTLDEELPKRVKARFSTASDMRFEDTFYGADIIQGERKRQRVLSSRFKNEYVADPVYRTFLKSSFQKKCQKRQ
Procedure: (§1) U2OS cells were seeded 24 hours before transfection. Transfection was performed with Fugene HD transfection reagent as recommended by the manufacturer. 6 hours after transfection, the cells were harvested and seeded into multi well plates into media containing compound. The media used was DMEM containing 5% FBS and pen/strep. 20 hours after incubation of cells with compounds, the cells were washed once in PBS, harvested by fixation with formaldehyde 4% aqueous solution, and washed 2 times in PBS. Subsequently, the cells were permeabilized in PBS with 0.2% Triton X-100 for 10 min at room temperature. Blocking was performed in PBS with 0.2% Triton X-100 and 5% FBS for 45 min at room temperature. The cells were incubated with primary antibodies diluted 1 μg/ml in blocking solution over night at 4° C. The primary antibodies used in the assays were HA.11 (Covance, MMS-101P) and the antibody detecting the mark specified in the Table 6 below. After incubation with primary antibodies, the cells were washed 3 times with PBS, incubated with secondary antibodies diluted 1:1000 (Alexa fluor 594 goat anti rabbit IgG, Invitrogen, A11012; Alexa flour 488 donkey anti mouse IgG, Invitrogen, A21202) and Hoechst, 20 μg/ml (Sigma, 33342) in blocking solution, and washed again 3 times with PBS. Finally, PBS was added and high throughput imaging and analysis were performed by an IN Cell Analyzer 1000 (GE Healthcare). The robot software analyzed individual cells and divided these into HA^+ (transfected cells) and HA^− (non-transfected cells). The IC50 values in Table 7 below were based on an average measure of the staining of the mark specified in the Table 6 below in the transfected cells.

PLU1 (KDM5B) = target: T2, PLU1 (KDM5B) (Homo sapiens, UniProt Q9UGL1); experiment: Immunofluorescence assay in U2OS cells transfected with pCMVHA PLU1 (H3K4me2 mark); assay type: cell-based; details: 20 hours
T2 construct: (1-752); host or cells: U2OS
T2 sequence (Q9UGL1 1-752): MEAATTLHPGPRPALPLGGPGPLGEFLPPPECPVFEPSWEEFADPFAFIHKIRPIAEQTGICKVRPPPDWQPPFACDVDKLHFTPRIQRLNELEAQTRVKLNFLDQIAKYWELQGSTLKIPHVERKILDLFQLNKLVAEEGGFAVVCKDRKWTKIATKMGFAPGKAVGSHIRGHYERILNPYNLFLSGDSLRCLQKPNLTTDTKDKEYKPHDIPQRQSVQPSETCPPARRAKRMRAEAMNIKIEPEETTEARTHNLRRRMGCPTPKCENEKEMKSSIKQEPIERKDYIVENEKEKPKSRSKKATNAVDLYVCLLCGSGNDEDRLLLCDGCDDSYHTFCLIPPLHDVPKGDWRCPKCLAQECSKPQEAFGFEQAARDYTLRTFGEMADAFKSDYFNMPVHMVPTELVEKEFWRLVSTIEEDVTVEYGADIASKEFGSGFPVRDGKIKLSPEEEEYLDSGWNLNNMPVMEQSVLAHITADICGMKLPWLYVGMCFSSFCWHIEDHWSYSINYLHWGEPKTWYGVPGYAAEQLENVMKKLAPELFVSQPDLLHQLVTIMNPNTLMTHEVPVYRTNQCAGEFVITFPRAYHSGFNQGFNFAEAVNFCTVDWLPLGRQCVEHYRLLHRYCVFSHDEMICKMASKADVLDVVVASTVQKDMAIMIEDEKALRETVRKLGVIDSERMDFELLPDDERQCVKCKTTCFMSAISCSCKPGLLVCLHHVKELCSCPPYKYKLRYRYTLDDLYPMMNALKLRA
Procedure: as §1

IC50 (GASC1 (KDM4C)) [µM] | IC50 (PLU1 (KDM5B)) [µM] | Compound
> 50 | 1 to 50 | Cn1c(CNCc2cc(C(=O)O)ccn2)nc2ccccc21 [drawing 307, 2-({[(1-methyl-1H-1,3-benzodiazol-2-yl)methyl)amino}methyl) pyridine-4-carboxylic acid]
1 to 50 | < 1 | CCN(CC)CCCCNCc1cc(C(=O)Oc2ccc(OC)cc2)ccn1 [drawing 329, 4-methoxyphenyl 2-({[4-(diethylamino)butyl]amino}methyl)pyridine-4-carboxylate]
> 50 | 1 to 50 | CN(C)CCCCNCc1cc(C(=O)O)ccn1 [2-({[4-(dimethylamino)butyl]amino}methyl)pyridine-4-carboxylic acid]
1 to 50 | 1 to 50 | CCN(CC)CCCCNCc1cc(C(=O)OCCN(C)C)ccn1 [drawing 331, 2-(dimethylamino) ethyl 2-({[4-(diethylamino)butyl]amino}methyl)pyridine-4-carboxylate]
> 50 | > 50 | COCCN1CCN(C(=O)CNCc2cc(C(=O)O)ccn2)CC1 [drawing 308, 2-[({2-[4-(2-methoxyethyl)piperazin-1-yl]-2-oxoethyl}amino)methyl] pyridine-4-carboxylic acid]
1 to 50 | 1 to 50 | CN(C)CCNCc1cc(C(=O)O)ccn1 [drawing 297, 2-({[2-(dimethylamino)ethyl]amino}methyl)pyridine-4-carboxylic acid]

The remaining lines, values behind:

Compound | IC50 (GASC1 (KDM4C)) [µM] | IC50 (PLU1 (KDM5B)) [µM]
CCN(CC)CCCCNCc1cc(C(=O)OCCCN(C)C)ccn1 [drawing 332, 3-(dimethylamino) propyl 2-({[4-(diethylamino)butyl]amino}methyl)pyridine-4-carboxylate] | 1 to 50 | 1 to 50
CN(Cc1ccnn1C)C(=O)CNCc1cc(C(=O)O)ccn1 [drawing 314, 2-{[({methyl[(1-methyl-1H-pyrazol-5-yl)methyl]carbamoyl}methyl)amino]methyl}pyridine-4-carboxylic acid] | > 50 | > 50
O=C(O)c1ccnc(CNCC2CC2)c1 [drawing 299, 2-{[(cyclopropylmethyl)amino]methyl}pyridine-4-carboxylic acid] | > 50 | 1 to 50
CN(CCCNCc1cc(C(=O)O)ccn1)Cc1ccccc1F [drawing 322, 2-{[(3-{[(2-fluorophenyl)methyl](methyl)amino}propyl)amino]methyl}pyridine-4-carboxylic acid] | > 50 | 1 to 50
O=C(O)c1ccnc(CN[C@@H]2CCN(CCCc3ccccc3)C2)c1 [drawing 315, 2-({[(3R)-1-(3-phenylpropyl)pyrrolidin-3-yl]amino}methyl)pyridine-4-carboxylic acid] | > 50 | 1 to 50
CN(C)CCN(C)Cc1cc(C(=O)O)ccn1 [drawing 301, 2-({[2-(dimethylamino)ethyl](methyl)amino}methyl)pyridine-4-carboxylic acid] | > 50 | > 50
COC(=O)c1ccnc(CNCCCN2CCCC2)c1 [drawing 326, methyl 2-({[3-(pyrrolidin-1-yl)propyl]amino}methyl) pyridine-4-carboxylate] | 1 to 50 | 1 to 50
CCN(CC)CCCCNCc1cc(C(=O)O)ccn1 [drawing 327, 2-({[4-(diethylamino)butyl]amino}methyl)pyridine-4-carboxylic acid] | 1 to 50 | 1 to 50
O=C(CNCc1cc(C(=O)O)ccn1)NC1CCN(Cc2ccco2)CC1 [drawing 318, 2-{[({[1-(furan-2-ylmethyl)piperidin-4-yl]carbamoyl}methyl)amino]methyl}pyridine-4-carboxylic acid] | > 50 | > 50
O=C(O)c1ccnc(CNCC(=O)N2CCCC2)c1 [drawing 305, 2-({[2-oxo-2-(pyrrolidin-1-yl)ethyl]amino}methyl) pyridine-4-carboxylic acid] | 1 to 50 | > 50
O=C(O)c1ccnc(CNC[C@@H](O)CO)c1 [drawing 298, 2-({[(2R)-2,3-dihydroxypropyl]amino}methyl)pyridine-4-carboxylic acid] | > 50 | > 50
CCN1CCCC1CNC(=O)CNCc1cc(C(=O)O)ccn1 (stereo not shown) [drawing 313, 2-{[({[(1-ethylpyrrolidin-2-yl)methyl]carbamoyl}methyl)amino]methyl}pyridine-4-carboxylic acid] | > 50 | 1 to 50
O=C(O)c1ccnc(CNCCCN2CCCC2)c1 [drawing 325, 2-({[3-(pyrrolidin-1-yl)propyl]amino}methyl)pyridine-4-carboxylic acid] | 1 to 50 | 1 to 50
O=C(CNCc1cc(C(=O)O)ccn1)NC1CCN(CCCc2ccccc2)CC1 [drawing 317, 2-{[({[1-(3-phenylpropyl)piperidin-4-yl]carbamoyl}methyl)amino]methyl}pyridine-4-carboxylic acid] | > 50 | > 50
